Laboratory results taken from patent US10835542B2, “9-aminomethyl minocycline compounds and use thereof in treating community-acquired bacterial pneumonia (CABP)” (Paratek Pharmaceuticals, Inc., priority 2016, dated 2020).
Where two headings read alike, the source gives them in different places.

What was measured:
Legionella pneumophila = format: in vivo, human; conditions: PTE, microITT; baseline pathogen Legionella pneumophila (culture, serology and/or urinary antigen); N1 = 37 (Compound 1), 37 (Moxifloxacin)
Streptococcus pneumoniae [1] = experiment: Mouse model of lower respiratory tract infection; format: in vivo; conditions: infection caused by Streptococcus pneumoniae
Haemophilus influenzae [2] = experiment: Clinical success at PTE by baseline pathogen, microITT; format: in vivo, human; conditions: N1 = 32 (Compound 1), 16 (Moxifloxacin)
Haemophilus influenzae [3] = experiment: Mouse model of lower respiratory tract infection; format: in vivo; conditions: infection caused by Haemophilus influenzae
[4] = Phase 1 multiple oral dose study: safety and tolerability; conditions: for Most frequent TEAEs: ALT increased, n (%) / Most frequent TEAEs: Diarrhea, n (%) / Most frequent TEAEs: Dizziness, n (%) / Most frequent TEAEs: Nausea, n (%) / Most frequent TEAEs: Vomiting, n (%) / TEAEs leading to early discontinuation of study drug: ALT increased, n (%) / TEAEs leading to early discontinuation of study drug: All, n (%) / TEAEs leading to early discontinuation of study drug: Lipase increased, n (%) / TEAEs leading to early discontinuation of study drug: Nausea, n (%) / TEAEs leading to early discontinuation of study drug: Syncope, n (%) / TEAEs leading to early discontinuation of study drug: Vomiting, n (%) / n (%) of subjects with Any TEAE / n (%) of subjects with Treatment-related TEAE: Safety Population
[5] = Food effect on plasma PK of a single 300 mg oral dose, healthy volunteers (4-period crossover); format: in vivo, human
Streptococcus pneumoniae [6] = format: in vivo, human; conditions: PTE, microITT
Mycoplasma pneumoniae = experiment: Clinical success at PTE by baseline pathogen, microITT; format: in vivo, human; conditions: N1 = 70 (Compound 1), 57 (Moxifloxacin)
[7] = subject who received 450 mg in Period 1 then 300 mg in Period 2

## CN(C)c1cc(CNCC(C)(C)C)c(O)c2c1C[C@H]1C[C@H]3[C@H](N(C)C)C(O)=C(C(N)=O)C(=O)[C@@]3(O)C(O)=C1C2=O [Compound 1, 9-[(2,2-dimethyl-propylamino)-methyl]-minocycline]
ITT population
  Total number of deaths: 8
Phase 3 CABP
  severity of gastrointestinal (GI) adverse events (vomiting, nausea, diarrhea, dyspepsia): mild
Safety population
  Subjects who died: 8 (2.1) n (%)
  Subjects with at least one Adverse Event (AE): 170 (44.5) n (%)
  Subjects with at least one Drug-Related Serious TEAE: 2 (0.5) n (%)
  Subjects with at least one Drug-Related TEAE: 39 (10.2) n (%)
  Subjects with at least one Serious TEAE: 23 (6.0) n (%)
  Subjects with at least one Serious TEAE Leading to Death: 8 (2.1) n (%)
  Subjects with at least one Serious TEAE Leading to Premature Discontinuation of Test Article: 10 (2.6) n (%)
  Subjects with at least one Severe TEAE: 25 (6.5) n (%)
  Subjects with at least one TEAE: 157 (41.1) n (%)
  Subjects with at least one TEAE Leading to Dose Interruption: 0 n (%)
  Subjects with at least one TEAE Leading to Premature Discontinuation of Study: 7 (1.8) n (%)
  Subjects with at least one TEAE Leading to Premature Discontinuation of Test Article: 21 (5.5) n (%)
  TEAE leading to study drug discontinuation: Diarrhoea: 0 n (%)
  TEAE leading to study drug discontinuation: Dyspepsia: 0 n (%)
  TEAE leading to study drug discontinuation: Gastrointestinal Disorders: 2 (0.5) n (%)
  TEAE leading to study drug discontinuation: Nausea: 1 (0.3) n (%)
  TEAE leading to study drug discontinuation: Vomiting: 2 (0.5) n (%)
  TEAE: Alanine Aminotransferase Increased: 14 (3.7) n (%)
  TEAE: Aspartate Aminotransferase Increased: 8 (2.1) n (%)
  TEAE: Clostridium Difficile Colitis: 0 n (%)
  TEAE: Clostridium Difficile Infection: 0 n (%)
  TEAE: Constipation: 9 (2.4) n (%)
  TEAE: Diarrhoea: 4 (1.0) n (%)
  TEAE: Dyspepsia: 4 (1.0) n (%)
  TEAE: Gamma-Glutamyltransferase Increased: 10 (2.6) n (%)
  TEAE: Headache: 8 (2.1) n (%)
  TEAE: Hypertension: 13 (3.4) n (%)
  TEAE: Insomnia: 10 (2.6) n (%)
  TEAE: Nausea: 9 (2.4) n (%)
  TEAE: Pseudomembranous Colitis: 0 n (%)
  TEAE: Vomiting: 10 (2.6) n (%)
  Total Number of AEs: 434
  Total Number of TEAEs: 376
Legionella pneumophila
  Clinical Success n (%): 35 (94.6) n (%)
Streptococcus pneumoniae [1]
  efficacy in mouse model of lower respiratory tract infection: effective
Haemophilus influenzae [2]
  Clinical Success n (%): 26 (81.3) n (%)
Haemophilus influenzae [3]
  efficacy in mouse model of lower respiratory tract infection: effective
[4]; 300 mg
  frequency of treatment-related TEAEs: 15.4%
  median change in alanine aminotransferase (ALT) between baseline and Day 5: −2.0 IU/L
[4]; 300 mg (n = 26)
  Most frequent TEAEs: ALT increased, n (%): 0 n (%)
  Most frequent TEAEs: Diarrhea, n (%): 0 n (%)
  Most frequent TEAEs: Dizziness, n (%): 2 (7.7) n (%)
  Most frequent TEAEs: Nausea, n (%): 2 (7.7) n (%)
  Most frequent TEAEs: Vomiting, n (%): 2 (7.7) n (%)
  TEAEs leading to early discontinuation of study drug: ALT increased, n (%): 0 n (%)
  TEAEs leading to early discontinuation of study drug: All, n (%): 1 (3.8) n (%)
  TEAEs leading to early discontinuation of study drug: Lipase increased, n (%): 0 n (%)
  TEAEs leading to early discontinuation of study drug: Nausea, n (%): 1 (3.8) n (%)
  TEAEs leading to early discontinuation of study drug: Syncope, n (%): 0 n (%)
  TEAEs leading to early discontinuation of study drug: Vomiting, n (%): 1 (3.8) n (%)
  n (%) of subjects with Any TEAE: 5 (19.2) n (%)
  n (%) of subjects with Treatment-related TEAE: 4 (15.4) n (%)
[4]; 450 mg
  frequency of treatment-related TEAEs: 8.3%
  median change in alanine aminotransferase (ALT) between baseline and Day 5: 5.0 IU/L
[4]; 450 mg (n = 24)
  Most frequent TEAEs: ALT increased, n (%): 1 (4.2) n (%)
  Most frequent TEAEs: Diarrhea, n (%): 0 n (%)
  Most frequent TEAEs: Dizziness, n (%): 0 n (%)
  Most frequent TEAEs: Nausea, n (%): 1 (4.2) n (%)
  Most frequent TEAEs: Vomiting, n (%): 0 n (%)
  TEAEs leading to early discontinuation of study drug: ALT increased, n (%): 1 (4.2) n (%)
  TEAEs leading to early discontinuation of study drug: All, n (%): 1 (4.2) n (%)
  TEAEs leading to early discontinuation of study drug: Lipase increased, n (%): 0 n (%)
  TEAEs leading to early discontinuation of study drug: Nausea, n (%): 0 n (%)
  TEAEs leading to early discontinuation of study drug: Syncope, n (%): 0 n (%)
  TEAEs leading to early discontinuation of study drug: Vomiting, n (%): 0 n (%)
  n (%) of subjects with Any TEAE: 3 (12.5) n (%)
  n (%) of subjects with Treatment-related TEAE: 2 (8.3) n (%)
[4]; 600 mg
  frequency of treatment-related TEAEs: 25.0%
  median change in alanine aminotransferase (ALT) between baseline and Day 5: 19.5 IU/L
  reports of diarrhea: 2
[4]; 600 mg (n = 24)
  Most frequent TEAEs: ALT increased, n (%): 1 (4.2) n (%)
  Most frequent TEAEs: Diarrhea, n (%): 2 (8.3) n (%)
  Most frequent TEAEs: Dizziness, n (%): 1 (4.2) n (%)
  Most frequent TEAEs: Nausea, n (%): 4 (16.7) n (%)
  Most frequent TEAEs: Vomiting, n (%): 1 (4.2) n (%)
  TEAEs leading to early discontinuation of study drug: ALT increased, n (%): 0 n (%)
  TEAEs leading to early discontinuation of study drug: All, n (%): 1 (4.2) n (%)
  TEAEs leading to early discontinuation of study drug: Lipase increased, n (%): 1 (4.2) n (%)
  TEAEs leading to early discontinuation of study drug: Nausea, n (%): 0 n (%)
  TEAEs leading to early discontinuation of study drug: Syncope, n (%): 0 n (%)
  TEAEs leading to early discontinuation of study drug: Vomiting, n (%): 0 n (%)
  n (%) of subjects with Any TEAE: 6 (25.0) n (%)
  n (%) of subjects with Treatment-related TEAE: 6 (25.0) n (%)
[4]; 600 mg group
  TEAE nausea: 16.7%
[4]; 300, 450 and 600 mg once daily for 5 days
  tolerability of multiple doses: generally well-tolerated
[4]; 300 and 450 mg dose groups
  TEAE nausea: ≤ 7.7%
[4]; Omadacycline Overall (n = 26)
  Most frequent TEAEs: ALT increased, n (%): 2 (7.7) n (%)
  Most frequent TEAEs: Diarrhea, n (%): 2 (7.7) n (%)
  Most frequent TEAEs: Dizziness, n (%): 3 (11.5) n (%)
  Most frequent TEAEs: Nausea, n (%): 6 (23.1) n (%)
  Most frequent TEAEs: Vomiting, n (%): 3 (11.5) n (%)
  TEAEs leading to early discontinuation of study drug: ALT increased, n (%): 1 (3.8) n (%)
  TEAEs leading to early discontinuation of study drug: All, n (%): 3 (11.5) n (%)
  TEAEs leading to early discontinuation of study drug: Lipase increased, n (%): 1 (3.8) n (%)
  TEAEs leading to early discontinuation of study drug: Nausea, n (%): 1 (3.8) n (%)
  TEAEs leading to early discontinuation of study drug: Syncope, n (%): 0 n (%)
  TEAEs leading to early discontinuation of study drug: Vomiting, n (%): 1 (3.8) n (%)
  n (%) of subjects with Any TEAE: 10 (38.5) n (%)
  n (%) of subjects with Treatment-related TEAE: 9 (34.6) n (%)
[4]; multiple oral doses 300-600 mg
  serious TEAEs (SAEs): no serious TEAEs
  severity of TEAEs: either mild or moderate
[4]; [7]
  highest individual ALT value: 150 IU/L
  highest individual ALT value above the upper limit of normal: 2.7 fold
[4]; subjects that received omadacycline (300, 450, 600 mg)
  subjects reporting TEAEs: 38.5%
[5]; Treatment D
  between-subject variability in systemic exposure (CV) for Cmax and AUC: 42.6-44.4%
[5]; Treatments A, B and C
  between-subject variability in systemic exposure (CV) for Cmax and AUC: 22.4-29.2%
Streptococcus pneumoniae [6]; Streptococcus pneumoniae MDRSP, N1 = 7 (Compound 1), 6 (Moxifloxacin)
  Clinical Success n (%): 7 (100.0) n (%)
Streptococcus pneumoniae [6]; Streptococcus pneumoniae Macrolide Resistant, N1 = 10 (Compound 1), 5 (Moxifloxacin)
  Clinical Success n (%): 10 (100.0) n (%)
Streptococcus pneumoniae [6]; Streptococcus pneumoniae PSSP, N1 = 26 (Compound 1), 22 (Moxifloxacin)
  Clinical Success n (%): 23 (88.5) n (%)
Streptococcus pneumoniae [6]; baseline pathogen Streptococcus pneumoniae, N1 = 43 (Compound 1), 34 (Moxifloxacin)
  Clinical Success n (%): 37 (86.0) n (%)
Mycoplasma pneumoniae
  Clinical Success n (%): 66 (94.3) n (%)
